Columns and labels:
D. melanogaster VAChT [1] = molecular target: T1, D. melanogaster VAChT (Drosophila melanogaster, UniProt O17444); experiment: inhibition of vesicular acetylcholine uptake, PNS from PC12 cells expressing VAChT; type: biochemical; conditions: substrate acetylcholine
T1 construct: full-length gene cloned by PCR from adult fly cDNA library, Gateway vector, expressed in PC12 cells (rat)
T1 sequence (O17444 1-578): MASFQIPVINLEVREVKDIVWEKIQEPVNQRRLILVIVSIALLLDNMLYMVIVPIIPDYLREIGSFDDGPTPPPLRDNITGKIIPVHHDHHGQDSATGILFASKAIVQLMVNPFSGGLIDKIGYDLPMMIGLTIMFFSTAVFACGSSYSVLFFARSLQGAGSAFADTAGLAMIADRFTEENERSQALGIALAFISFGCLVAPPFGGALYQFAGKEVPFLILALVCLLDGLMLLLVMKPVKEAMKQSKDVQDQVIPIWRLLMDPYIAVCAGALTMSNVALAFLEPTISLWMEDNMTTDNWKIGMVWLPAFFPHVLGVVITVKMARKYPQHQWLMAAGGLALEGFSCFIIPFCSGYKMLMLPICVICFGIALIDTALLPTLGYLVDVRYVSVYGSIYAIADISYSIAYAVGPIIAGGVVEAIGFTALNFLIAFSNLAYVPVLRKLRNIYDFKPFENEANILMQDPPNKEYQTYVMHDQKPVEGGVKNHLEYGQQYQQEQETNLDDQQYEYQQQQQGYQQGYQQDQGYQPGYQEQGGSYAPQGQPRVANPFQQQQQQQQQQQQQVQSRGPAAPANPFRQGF

D. melanogaster VAChT [2] = molecular target: T1, D. melanogaster VAChT; experiment: [3H]-SYN876 saturation binding to membranes of PC12 cells expressing VAChT
D. melanogaster VAChT [3] = molecular target: T1, D. melanogaster VAChT; experiment: displacement of [3H]-SYN876 from membranes of PC12 cells expressing VAChT; type: binding; conditions: competition with [3H]-SYN876

Row | Structure (SMILES) | IC50 (D. melanogaster VAChT [1]) | Kd (D. melanogaster VAChT [2]) [nM] | IC50 (D. melanogaster VAChT [3])
1 | O=C(c1ccnc(Cl)c1)N1CC2(CCN(C/C=C/c3ccc(Cl)cc3)CC2)c2cc(F)ccc21 [SYN876] | Inhibition of the acetylcholine transport activity of PNS from the cells | 0.04 | 
2 | Nc1cccc2c1CC(N1CCC(c3ccccc3)CC1)C(O)C2 (stereo not shown) [aminobenzovesamicol] |  |  | displaced by the known VAChT inhibitors vesamicol and aminobenzovesamicol (table S3)
3 | OC1CCCCC1N1CCC(c2ccccc2)CC1 (stereo not shown) [vesamicol] |  |  | displaced by the known VAChT inhibitors vesamicol and aminobenzovesamicol (table S3)
